Patent publication US20060217359A1, “Therapeutic procedures” (priority 2003, published 2006)

Tests used:
[1] = Cytotoxicity assay (LDH release), WI-L2; assay type: cell-based; conditions: human
Protocol: (§1) Cytotoxicity assays. WI-L2 human B-lymphocyte line, HAAE-1 human abdominal aortic endothelial line, MH—S murine alveolar macrophage line, and J774A.1 murine tissue macrophage line were obtained from the ATCC. Human aortic endothelial cells (HAEC) and human vascular smooth muscle cells (VSMS) were obtained from Cambrex Bio Science. Jurkat E6-1T-lymphocytes were kindly provided by Dr. J. Kaye (The Scripps Research Institute). Cells were cultured in ATCC-recommended media with 10% fetal calf serum. Cells were incubated in a controlled atmosphere at 37° C., with 5 or 7% CO2. For lactate dehydrogenase (LDH) release assays, adherent cells were harvested either by addition of 0.05% trypsin/EDTA or by scraping. The cells obtained were seeded onto 96-well microtiter plates (25,000 cells/well) and allowed to recover for 24-48 h. […] Cytotoxicity was then determined by measuring lactate dehydrogenase (LDH) release from cells in culture. […] 100% Cytotoxicity was defined as the maximum amount of LDH released by dead cells as shown by trypan blue exclusion, or the highest amount of LDH detected upon lysis of cells by 0.9% Triton X-100. The IC50 values were determined by comparison of the raw duplicate data for concentration versus cytotoxicity (%) to non-linear regression analysis (Hill plot) using Graphpad v3.0 software for Macintosh. […]

[2] = Cytotoxicity assay (LDH release), Jurkat; assay type: cell-based; conditions: human
Protocol: as §1

[3] = Cytotoxicity assay (LDH release), HAEC; assay type: cell-based; conditions: human, 0-100 μM
Protocol: as §1

[4] = Cytotoxicity assay (LDH release), VSMC; assay type: cell-based; conditions: human, 0-100 μM
Protocol: as §1

[5] = target: LDL / apoB-100 (Homo sapiens, UniProt P04114); experiment: Circular dichroism of LDL secondary structure; assay type: biochemical; conditions: LDL 100 μg/ml, compound 10 μM, PBS pH 7.4, 37° C., up to 48 h; for random coil of LDL after incubation: native LDL 27±2%; for α helical structure of LDL after incubation (loss of secondary structure): native LDL ~40±2%
Chain of LDL / apoB-100 (P04114 28-4563): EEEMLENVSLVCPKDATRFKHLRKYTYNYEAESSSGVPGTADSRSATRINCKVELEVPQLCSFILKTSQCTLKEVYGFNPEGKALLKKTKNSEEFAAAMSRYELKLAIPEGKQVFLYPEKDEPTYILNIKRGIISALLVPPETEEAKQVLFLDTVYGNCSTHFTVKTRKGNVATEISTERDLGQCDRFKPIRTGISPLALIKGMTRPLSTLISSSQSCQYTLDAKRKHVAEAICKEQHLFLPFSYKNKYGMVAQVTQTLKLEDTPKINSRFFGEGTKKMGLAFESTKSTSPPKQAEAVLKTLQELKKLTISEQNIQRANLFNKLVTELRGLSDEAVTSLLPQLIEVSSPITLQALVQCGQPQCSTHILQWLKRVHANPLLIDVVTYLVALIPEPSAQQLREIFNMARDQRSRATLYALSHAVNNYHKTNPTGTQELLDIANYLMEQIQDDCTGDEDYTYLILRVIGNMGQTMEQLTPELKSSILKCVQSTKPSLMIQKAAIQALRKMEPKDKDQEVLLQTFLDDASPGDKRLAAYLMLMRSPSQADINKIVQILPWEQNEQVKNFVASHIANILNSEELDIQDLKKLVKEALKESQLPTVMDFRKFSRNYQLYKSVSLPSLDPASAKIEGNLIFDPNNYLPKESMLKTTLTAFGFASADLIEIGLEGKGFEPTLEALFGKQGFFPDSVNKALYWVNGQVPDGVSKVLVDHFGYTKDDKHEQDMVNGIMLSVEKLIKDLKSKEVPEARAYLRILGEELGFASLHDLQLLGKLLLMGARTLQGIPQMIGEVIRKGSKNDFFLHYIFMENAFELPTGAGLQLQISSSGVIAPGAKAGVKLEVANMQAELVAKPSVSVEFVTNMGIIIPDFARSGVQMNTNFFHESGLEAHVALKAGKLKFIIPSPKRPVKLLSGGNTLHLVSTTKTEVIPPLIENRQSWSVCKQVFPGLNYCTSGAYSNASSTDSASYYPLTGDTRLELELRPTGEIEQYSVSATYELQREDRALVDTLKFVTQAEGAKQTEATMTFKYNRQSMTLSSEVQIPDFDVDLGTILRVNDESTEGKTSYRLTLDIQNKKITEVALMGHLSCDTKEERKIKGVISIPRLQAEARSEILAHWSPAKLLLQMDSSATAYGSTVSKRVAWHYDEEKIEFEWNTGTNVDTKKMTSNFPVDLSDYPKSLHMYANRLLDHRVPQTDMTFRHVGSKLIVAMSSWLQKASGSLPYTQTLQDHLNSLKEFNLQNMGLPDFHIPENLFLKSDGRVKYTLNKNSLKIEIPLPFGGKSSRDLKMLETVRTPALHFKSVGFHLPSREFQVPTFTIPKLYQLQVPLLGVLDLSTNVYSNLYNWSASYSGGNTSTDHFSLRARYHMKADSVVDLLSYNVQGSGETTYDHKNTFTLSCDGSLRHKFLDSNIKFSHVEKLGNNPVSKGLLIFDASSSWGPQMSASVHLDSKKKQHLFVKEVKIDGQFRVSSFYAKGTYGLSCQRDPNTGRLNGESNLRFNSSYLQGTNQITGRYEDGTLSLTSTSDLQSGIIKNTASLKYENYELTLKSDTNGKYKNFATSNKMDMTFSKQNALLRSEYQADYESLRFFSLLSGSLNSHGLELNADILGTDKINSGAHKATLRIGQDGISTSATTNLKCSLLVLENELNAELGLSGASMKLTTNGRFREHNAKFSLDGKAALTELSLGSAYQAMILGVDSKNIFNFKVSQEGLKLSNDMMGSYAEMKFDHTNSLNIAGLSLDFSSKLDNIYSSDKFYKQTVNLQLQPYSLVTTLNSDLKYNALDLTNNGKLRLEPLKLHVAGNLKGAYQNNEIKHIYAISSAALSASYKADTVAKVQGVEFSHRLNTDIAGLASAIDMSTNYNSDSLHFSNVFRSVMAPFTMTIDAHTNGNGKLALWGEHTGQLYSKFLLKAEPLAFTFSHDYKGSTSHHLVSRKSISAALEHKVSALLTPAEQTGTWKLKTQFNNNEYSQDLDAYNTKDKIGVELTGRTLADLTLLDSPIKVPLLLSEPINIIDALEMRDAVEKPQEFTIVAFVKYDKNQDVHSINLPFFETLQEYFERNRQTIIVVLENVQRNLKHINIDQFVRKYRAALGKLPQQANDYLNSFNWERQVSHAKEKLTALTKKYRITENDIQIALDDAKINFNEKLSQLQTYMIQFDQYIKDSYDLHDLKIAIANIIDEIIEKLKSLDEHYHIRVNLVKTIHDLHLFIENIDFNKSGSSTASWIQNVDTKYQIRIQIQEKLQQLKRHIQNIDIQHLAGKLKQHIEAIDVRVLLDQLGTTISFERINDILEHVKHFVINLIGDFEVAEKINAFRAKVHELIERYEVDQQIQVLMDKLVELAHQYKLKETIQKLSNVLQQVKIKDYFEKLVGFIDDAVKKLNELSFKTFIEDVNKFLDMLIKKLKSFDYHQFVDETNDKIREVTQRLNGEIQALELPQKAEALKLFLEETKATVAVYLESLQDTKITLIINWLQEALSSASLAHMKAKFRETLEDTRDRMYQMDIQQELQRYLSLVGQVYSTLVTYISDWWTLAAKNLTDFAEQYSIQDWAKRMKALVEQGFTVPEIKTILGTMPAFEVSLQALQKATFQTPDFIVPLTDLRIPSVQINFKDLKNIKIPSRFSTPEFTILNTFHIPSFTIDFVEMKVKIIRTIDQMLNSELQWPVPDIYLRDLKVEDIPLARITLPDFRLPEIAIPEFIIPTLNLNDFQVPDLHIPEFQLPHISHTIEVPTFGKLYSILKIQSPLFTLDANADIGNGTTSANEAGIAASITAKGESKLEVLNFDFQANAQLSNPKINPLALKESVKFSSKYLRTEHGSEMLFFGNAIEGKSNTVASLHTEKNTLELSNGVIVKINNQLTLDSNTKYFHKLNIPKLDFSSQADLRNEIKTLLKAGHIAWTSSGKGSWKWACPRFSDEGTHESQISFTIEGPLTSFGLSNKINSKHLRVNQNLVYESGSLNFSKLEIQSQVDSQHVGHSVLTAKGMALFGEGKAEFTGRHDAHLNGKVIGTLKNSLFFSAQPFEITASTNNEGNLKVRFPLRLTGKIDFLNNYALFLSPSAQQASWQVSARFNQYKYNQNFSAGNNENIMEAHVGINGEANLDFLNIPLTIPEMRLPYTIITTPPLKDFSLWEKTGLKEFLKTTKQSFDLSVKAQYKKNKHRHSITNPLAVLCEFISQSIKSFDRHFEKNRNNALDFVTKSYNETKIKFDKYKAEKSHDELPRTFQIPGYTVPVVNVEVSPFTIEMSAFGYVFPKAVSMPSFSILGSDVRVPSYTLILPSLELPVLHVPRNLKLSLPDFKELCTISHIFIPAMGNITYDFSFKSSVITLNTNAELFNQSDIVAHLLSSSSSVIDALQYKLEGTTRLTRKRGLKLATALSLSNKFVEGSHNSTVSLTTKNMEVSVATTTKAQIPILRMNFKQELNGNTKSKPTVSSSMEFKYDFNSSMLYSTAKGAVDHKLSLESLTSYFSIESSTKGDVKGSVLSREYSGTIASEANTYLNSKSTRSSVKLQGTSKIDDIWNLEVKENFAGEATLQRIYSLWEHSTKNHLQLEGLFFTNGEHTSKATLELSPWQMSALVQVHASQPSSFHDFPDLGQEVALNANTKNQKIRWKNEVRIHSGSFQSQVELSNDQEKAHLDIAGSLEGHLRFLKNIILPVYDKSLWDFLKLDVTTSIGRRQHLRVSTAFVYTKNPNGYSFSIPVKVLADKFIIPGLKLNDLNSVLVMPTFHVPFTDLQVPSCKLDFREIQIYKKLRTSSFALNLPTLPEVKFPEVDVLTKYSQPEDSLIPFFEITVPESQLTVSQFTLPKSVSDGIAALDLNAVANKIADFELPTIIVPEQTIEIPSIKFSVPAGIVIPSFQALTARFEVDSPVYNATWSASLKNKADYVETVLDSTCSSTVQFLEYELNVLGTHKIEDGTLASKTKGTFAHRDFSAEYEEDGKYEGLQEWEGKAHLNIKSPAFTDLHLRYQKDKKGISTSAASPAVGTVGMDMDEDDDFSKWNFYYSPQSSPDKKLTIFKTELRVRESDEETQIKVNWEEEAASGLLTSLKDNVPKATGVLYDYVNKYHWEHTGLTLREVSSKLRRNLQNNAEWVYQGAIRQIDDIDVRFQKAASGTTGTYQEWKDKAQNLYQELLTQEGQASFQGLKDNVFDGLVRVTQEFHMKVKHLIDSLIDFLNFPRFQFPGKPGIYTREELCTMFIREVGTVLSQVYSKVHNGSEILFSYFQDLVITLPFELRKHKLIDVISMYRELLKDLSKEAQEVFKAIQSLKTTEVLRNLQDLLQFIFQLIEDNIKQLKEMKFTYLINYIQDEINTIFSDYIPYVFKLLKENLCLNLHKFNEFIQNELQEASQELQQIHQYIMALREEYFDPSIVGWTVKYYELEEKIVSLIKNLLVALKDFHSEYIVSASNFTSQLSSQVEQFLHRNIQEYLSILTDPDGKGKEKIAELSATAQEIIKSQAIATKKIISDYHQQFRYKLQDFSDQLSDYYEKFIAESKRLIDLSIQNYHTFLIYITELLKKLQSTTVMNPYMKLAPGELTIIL
Protocol: Circular dichroism. […] Spectra were recorded in the peptidic range (200-260 nm). To increase the signal-to-noise ratio, multiple spectra (three) were averaged for each measurement.

[6] = Cytotoxicity assay (LDH release), J774A.1; assay type: cell-based, murine; conditions: mouse, J774A.1 cells, 0-100 μM
Protocol: as §1

[7] = Cytotoxicity assay (LDH release), MH-S; assay type: cell-based, murine; conditions: mouse, MH-S cells, 0-100 μM
Protocol: as §1

[8] = Decrease of extractable 5a in stored plasma; assay type: in vitro ADME; conditions: stored human plasma, preliminary investigations
Excerpt: The combined organic fractions were evaporated in vacuo.

Row | SMILES | IC50 at 18 h [1] | IC50 at 18 h [2] | IC50 at 18 h ([3]; human aortic endothelial cells (HAEC)) | IC50 at 18 h ([4]; vascular smooth muscle cells (VSMC)) | random coil of LDL after incubation [5] | α helical structure of LDL after incubation (loss of secondary structure) [5] | IC50 at 18 h ([1]; WIL2 cells, 18 h, 0-100 μM, read-out: IC50 (cytotoxicity, LDH release)) | IC50 at 18 h ([2]; Jurkat E6.1 cells, 18 h, 0-100 μM, read-out: IC50 (cytotoxicity, LDH release)) | IC50 at 18 h ([3]; HAEC cells) | IC50 at 18 h ([4]; VSMC cells) | IC50 at 18 h [6] | IC50 at 18 h [7] | decrease of the amount that can be extracted from plasma [8]
1 | CC(C)CCC[C@@H](C)[C@H]1CCC2C(CC=O)C([C@@]3(C)CC[C@H](O)CC3=O)CC[C@@]21C (stereo partly drawn) [4a, 3β-Hydroxy-5-oxo-5,6-secocholestan-6-al] | 10.9 ± 1.6 µM | 15.5 ± 1.7 µM | 24.6 ± 3.2 µM | 21.9 ± 2.2 µM | ~39±2% | ~23±5% | – | – | – | – | – | – | –
2 | CC(C)CCC[C@@H](C)[C@H]1CCC2C3C(CC[C@@]21C)[C@@]1(C)CC[C@H](O)C[C@@]1(O)[C@@H]3C=O (stereo partly drawn) [5a, 3β-Hydroxy-5β-hydroxy-B-norcholestane-6β-carboxaldehyde] | – | – | – | – | 32±4% | ~20±2% | 17.7 ± 2.3 µM | 12.6 ± 1.9 µM | 18.2 ± 1.9 µM | 29.8 ± 2.8 µM | 26.1 ± 2.8 µM | 13.6 ± 1.1 µM | about 5 % per day
